{"source": "patent US20110172433A1", "about": "“NOVEL IMINO DERIVATIVES, METHODS FOR PRODUCING THE SAME AND INSECTICIDES CONTAINING THE SAME” (priority 2008, published 2011)"}
{"test_system": "greenhouse whitefly", "assay": "Greenhouse whitefly controlling effect (cucumber dip)", "assay_type": "in vivo, Trialeurodes vaporariorum", "conditions": "wettable powder per Formulation Example 2, active ingredient 100 μg/ml, 25° C., after 120 hours", "units": {"lethality": "%"}, "procedure": "This was allowed to be inhabited with 20 adult insects of the greenhouse whitefly, covered with the stopper, and allowed to stand in a room whose temperature was constant at 25° C. After 120 hours, the number of viable insects was counted.\nThe overground part of the 1-leaf stage cucumber was dipped in a 100 μg/ml treatment solution obtained by a 5000-fold dilution with water of the prepared wettable powder, and air-dried, and then transferred to a plastic container having a stopper. This was allowed to be inhabited with 20 adult insects of the greenhouse whitefly, covered with the stopper, and allowed to stand in a room whose temperature was constant at 25° C. After 120 hours, the number of viable insects was counted."}
{"smiles": "O=C(/N=C1\\SCCN1Cc1ccc(Cl)nc1)C(F)(F)F", "note": "[Formula (12)]", "lethality": 25}
{"test_system": "cotton aphid, green peach aphid, greenhouse whitefly, two-spotted spider mite", "assay": "not given", "conditions": "in vivo"}
{"smiles": "O=C(N=C1SCCN1Cc1ccc(Cl)nc1)C(Cl)(Cl)Cl", "note": "[Compound 5]", "pest controlling effects": "excellent pest controlling effects"}
{"smiles": "CCCOC(=O)N=C1SCCN1Cc1ccc(Cl)nc1", "note": "[Compound 43]", "pest controlling effects": "excellent pest controlling effects"}
{"smiles": "CC(C)OC(=O)N=C1SCCN1Cc1ccc(Cl)nc1", "note": "[Compound 44]", "pest controlling effects": "excellent pest controlling effects"}
{"smiles": "O=C(N=C1SCCN1Cc1ccc(Cl)nc1)OCCCl", "note": "[Compound 45]", "pest controlling effects": "excellent pest controlling effects"}
{"smiles": "CC(=O)N=C1SCCN1Cc1ccc(Cl)nc1", "note": "[Compound 72]", "pest controlling effects": "excellent pest controlling effects"}
{"smiles": "O=C(CCl)N=C1SCCN1Cc1ccc(Cl)nc1", "note": "[Compound 73]", "pest controlling effects": "excellent pest controlling effects"}
{"smiles": "O=C(N=C1SCCN1Cc1ccc(Cl)nc1)C(F)F", "note": "[Compound 76]", "pest controlling effects": "excellent pest controlling effects"}
{"smiles": "COCC(=O)N=C1SCCN1Cc1ccc(Cl)nc1", "note": "[Compound 78]", "pest controlling effects": "excellent pest controlling effects"}
{"smiles": "CSCCC(=O)N=C1SCCN1Cc1ccc(Cl)nc1", "note": "[Compound 90]", "pest controlling effects": "excellent pest controlling effects"}
{"smiles": "O=C(N=C1SCCN1Cc1ccc(Cl)nc1)C1CC1", "note": "[Compound 92]", "pest controlling effects": "excellent pest controlling effects"}
{"smiles": "O=C(N=C1SCCN1Cc1ccc(Cl)nc1)C1CC1(F)F", "note": "(stereo not shown) [Compound 103]", "pest controlling effects": "excellent pest controlling effects"}
{"smiles": "CONC(=O)N=C1SCCN1Cc1ccc(Cl)nc1", "note": "[Compound 106]", "pest controlling effects": "excellent pest controlling effects"}
{"smiles": "CCOC(=O)N=C1SCCN1Cc1ccc(Cl)nc1", "note": "[Compound 113]", "pest controlling effects": "excellent pest controlling effects"}
{"smiles": "O=C(N=C1SCCN1Cc1ccc(Cl)nc1)OCCF", "note": "[Compound 114]", "pest controlling effects": "excellent pest controlling effects"}
{"smiles": "O=C(N=C1SCCN1Cc1ccc(Cl)nc1)OCC(F)F", "note": "[Compound 115]", "pest controlling effects": "excellent pest controlling effects"}
{"smiles": "COCCOC(=O)N=C1SCCN1Cc1ccc(Cl)nc1", "note": "[Compound 118]", "pest controlling effects": "excellent pest controlling effects"}
{"smiles": "CSCCOC(=O)N=C1SCCN1Cc1ccc(Cl)nc1", "note": "[Compound 119]", "pest controlling effects": "excellent pest controlling effects"}
{"smiles": "O=C(N=C1SCCN1Cc1ccc(Cl)nc1)OCCCF", "note": "[Compound 122]", "pest controlling effects": "excellent pest controlling effects"}
{"smiles": "C=CCOC(=O)N=C1SCCN1Cc1ccc(Cl)nc1", "note": "[Compound 126]", "pest controlling effects": "excellent pest controlling effects"}
{"smiles": "CCCCOC(=O)N=C1SCCN1Cc1ccc(Cl)nc1", "note": "[Compound 128]", "pest controlling effects": "excellent pest controlling effects"}
{"smiles": "CC(C)COC(=O)N=C1SCCN1Cc1ccc(Cl)nc1", "note": "[Compound 129]", "pest controlling effects": "excellent pest controlling effects"}
{"smiles": "CCC(C)OC(=O)N=C1SCCN1Cc1ccc(Cl)nc1", "note": "(stereo not shown) [Compound 130]", "pest controlling effects": "excellent pest controlling effects"}
{"smiles": "CC(C)=CCOC(=O)N=C1SCCN1Cc1ccc(Cl)nc1", "note": "[Compound 135]", "pest controlling effects": "excellent pest controlling effects"}
{"smiles": "CCCCCOC(=O)N=C1SCCN1Cc1ccc(Cl)nc1", "note": "[Compound 136]", "pest controlling effects": "excellent pest controlling effects"}
{"smiles": "O=C(N=C1SCCN1Cc1ccc(Cl)nc1)OCC1CC1", "note": "[Compound 139]", "pest controlling effects": "excellent pest controlling effects"}
{"smiles": "O=C(N=C1SCCN1Cc1ccc(Cl)nc1)OCC1CCOC1", "note": "(stereo not shown) [Compound 144]", "pest controlling effects": "excellent pest controlling effects"}
{"smiles": "O=C(N=C1SCCN1Cc1ccc(Cl)nc1)OC1CCOCC1", "note": "[Compound 146]", "pest controlling effects": "excellent pest controlling effects"}
